This is an account of results in the Kinase Knowledgebase extract (Sharma et al. 2016).

In general, IC50 refers to the concentration needed to halve the response being measured.

This test deals with EGFR (human) (UniProt P00533). The note with it: a431.
Chain of EGFR (human) (P00533 whole entry, looked up): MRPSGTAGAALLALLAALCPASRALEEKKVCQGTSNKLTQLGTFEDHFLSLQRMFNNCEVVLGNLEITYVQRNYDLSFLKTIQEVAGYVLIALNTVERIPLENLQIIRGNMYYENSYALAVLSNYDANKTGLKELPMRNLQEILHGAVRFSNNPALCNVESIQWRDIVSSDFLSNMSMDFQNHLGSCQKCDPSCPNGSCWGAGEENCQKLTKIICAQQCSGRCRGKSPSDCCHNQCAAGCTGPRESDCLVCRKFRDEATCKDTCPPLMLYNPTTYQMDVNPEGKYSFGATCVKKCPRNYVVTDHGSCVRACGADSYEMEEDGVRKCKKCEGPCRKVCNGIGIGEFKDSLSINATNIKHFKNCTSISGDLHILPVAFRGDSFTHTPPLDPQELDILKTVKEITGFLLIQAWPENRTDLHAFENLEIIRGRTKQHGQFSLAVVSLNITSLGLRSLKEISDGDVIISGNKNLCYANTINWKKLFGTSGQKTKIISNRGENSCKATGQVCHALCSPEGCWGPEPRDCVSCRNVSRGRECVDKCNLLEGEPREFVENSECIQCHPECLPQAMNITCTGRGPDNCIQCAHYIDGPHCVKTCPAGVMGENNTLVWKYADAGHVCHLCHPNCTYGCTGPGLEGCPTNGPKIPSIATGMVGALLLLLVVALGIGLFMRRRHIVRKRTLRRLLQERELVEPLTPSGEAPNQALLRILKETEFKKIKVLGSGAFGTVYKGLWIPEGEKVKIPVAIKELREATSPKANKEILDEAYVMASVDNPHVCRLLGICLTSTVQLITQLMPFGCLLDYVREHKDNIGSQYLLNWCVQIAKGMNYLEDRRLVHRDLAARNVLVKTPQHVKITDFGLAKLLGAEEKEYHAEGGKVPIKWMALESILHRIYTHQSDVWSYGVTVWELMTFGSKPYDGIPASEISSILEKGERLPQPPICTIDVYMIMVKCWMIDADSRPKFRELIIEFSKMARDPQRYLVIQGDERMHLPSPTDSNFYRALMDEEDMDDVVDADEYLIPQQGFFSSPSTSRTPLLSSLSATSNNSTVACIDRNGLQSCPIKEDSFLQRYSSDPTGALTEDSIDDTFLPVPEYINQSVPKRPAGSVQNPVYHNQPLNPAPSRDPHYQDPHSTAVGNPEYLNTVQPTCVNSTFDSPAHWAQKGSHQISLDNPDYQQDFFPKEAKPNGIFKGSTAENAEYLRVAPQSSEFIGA
Turning to `C=CC(=O)N1CCC(Oc2cc3c(Nc4cccc(C(F)(F)F)c4)ncnc3cc2OC)CC1`, the IC50 was determined as 58 nM.

Take `C=CC(=O)N1CCC(Oc2cc3c(NCc4cccc(Cl)c4)ncnc3cc2OC)CC1`: the IC50 stood at 61 nM.

Take `C=CC(=O)N1CC[C@H](Oc2cc3c(Nc4ccc(Br)cc4F)ncnc3cc2OC)C1`: the IC50 was 15 nM.

`COc1cc2ncnc(Nc3ccc(F)c(Cl)c3F)c2cc1OC1CCN(C(=O)/C=C/C(=O)NO)CC1` displayed an IC50 of 187 nM.

`C=CC(=O)N1CCC(Oc2cc3c(Nc4cc(Cl)c(O)c(Cl)c4)ncnc3cc2OC)CC1` gave an IC50 of 179 nM.

As for `C=CC(=O)N1CC[C@H](Oc2cc3c(Nc4cccc(Cl)c4F)ncnc3cc2OC)C1`, the IC50 turned out to be 531 nM.

As to `C=C(CN(C)C)C(=O)N1CCC(Oc2cc3c(Nc4ccc(Cl)c(Cl)c4F)ncnc3cc2OC)CC1`, the IC50 is 4 nM.

The compound `C=CC(=O)N1CC[C@H](Oc2cc3c(Nc4ccc(F)c(Cl)c4F)ncnc3cc2OC)C[C@H]1C(=O)NCCN1CCOCC1` returned an IC50 of 8.3 nM.

Compound `C=CC(=O)N1CCC(Oc2cc3c(Nc4ccc(Cl)c(C)c4)ncnc3cc2OC)CC1` registered an IC50 of 93 nM.

`COc1cc2ncnc(Nc3ccc(F)c(Cl)c3F)c2cc1OC1CN(C(=O)/C=C/Cl)C1` showed an IC50 of 44 nM.

In turn, `C=CC(=O)N1CCC(Oc2cc3c(Nc4ccc(Br)c(F)c4)ncnc3cc2OC)CC1` showed an IC50 of 7 nM.

Consider `C=CC(=O)N1CC[C@@H](Oc2cc3c(Nc4ccc(F)c(Cl)c4F)ncnc3cc2OC)C[C@@H]1C(=O)O`, for which the IC50 was found to be 979 nM.

Consider `C=CC(=O)N1CCC(Oc2cc3c(Nc4ccc(F)c(C#N)c4)ncnc3cc2OC)CC1`, for which the IC50 amounted to 8 nM.

Turning to `C=C(CN1CCOCC1)C(=O)N1CCC(Oc2cc3c(Nc4ccc(F)c(Cl)c4F)ncnc3cc2OC)CC1`, the IC50 is 10 nM.

`COc1cc2ncnc(Nc3ccc(F)c(Cl)c3F)c2cc1O[C@H]1CCN(C(=O)C#CCN(C)C)C1` returned an IC50 of 33 nM.

`C=CC(=O)N1CCC(Oc2cc3c(Nc4cccc(S)c4)ncnc3cc2OC)CC1` displayed an IC50 of 300 nM.

In turn, `COc1cc2ncnc(Nc3ccc(F)c(Cl)c3F)c2cc1O[C@H]1CCN(C(=O)/C=C/CN(C)C)C1` had an IC50 of 4 nM.

`COC(=O)/C=C\C(=O)N1CCC(Oc2cc3c(Nc4ccc(F)c(Cl)c4F)ncnc3cc2OC)CC1` gave an IC50 of 9 nM.

On to `C=CC(=O)N1CCC(Oc2cc3c(Nc4cccc(Cl)c4C)ncnc3cc2OC)CC1`, for which the IC50 turned out to be 9 nM.

Turning to `C=CC(=O)N1CC[C@H](Oc2cc3c(Nc4ccc(F)c(Cl)c4F)ncnc3cc2OC)C[C@H]1C(=O)OC`, the IC50 was 5 nM.

As for `COc1cc2ncnc(Nc3ccc(F)c(Cl)c3F)c2cc1OC1CCN(C(=O)C=C(C)C)CC1`, the IC50 is 38 nM.

The compound `C=CC(=O)N1CC(Oc2cc3c(Nc4ccc(F)c(Cl)c4F)ncnc3cc2OCCOC)C1` registered an IC50 of 883 nM.

The compound `C=C(CO)C(=O)N1CCC(Oc2cc3c(Nc4ccc(Cl)c(Cl)c4F)ncnc3cc2OC)CC1` showed an IC50 of 44 nM.

The compound `C=CC(=O)N1CCC(Oc2cc3c(Nc4cccc(C#N)c4)ncnc3cc2OC)CC1` came in with an IC50 of 3.7 nM.

Take `C=C(CN1CCCCC1)C(=O)N1CC(Oc2cc3c(Nc4ccc(F)c(Cl)c4F)ncnc3cc2OC)C1`: the IC50 is 9.1 nM.

`C=CC(=O)N1CC[C@H](Oc2cc3c(Nc4ccc(F)c(Cl)c4F)ncnc3cc2OC)C[C@H]1C(=O)NC` returned an IC50 of 2.2 nM.

On to `C=CC(=O)N1CCC(Oc2cc3c(Nc4ccc(Cl)cc4O)ncnc3cc2OC)CC1`, for which the IC50 was determined as 32 nM.

As to `COc1cc2ncnc(Nc3ccc(Cl)c(Cl)c3F)c2cc1OC1CCN(C(=O)/C=C/C(=O)O)CC1`, the IC50 amounted to 516 nM.

The compound `COc1cc2ncnc(Nc3ccc(F)c(Cl)c3F)c2cc1O[C@H]1CCN(C(=O)/C=C/CN2CCCC2)C1` yielded an IC50 of 8 nM.

Turning to `CN(C)C/C=C/C(=O)N1CC[C@H](Oc2ccc3ncnc(Nc4ccc(F)c(Cl)c4F)c3c2)C1`, the IC50 stood at 25 nM.

Turning to `C=CC(=O)N1CC[C@H](Oc2cc3c(Nc4ccc5c(cnn5Cc5cccc(F)c5)c4)ncnc3cc2OC)C1`, the IC50 was determined as 19 nM.

`CCN(CC)C/C=C/C(=O)N1CC[C@H](Oc2cc3c(Nc4ccc(F)c(Cl)c4F)ncnc3cc2OC)C1` registered an IC50 of 28 nM.

`C=CC(=O)N1CC[C@@H](Oc2cc3c(Nc4ccc(F)c(Cl)c4F)ncnc3cc2OC)C[C@@H]1C(=O)NCCS(C)(=O)=O` came in with an IC50 of 2.4 nM.

As to `C=CC(=O)N1CC[C@H](Oc2cc3c(Nc4ccc(F)c(Cl)c4F)ncnc3cc2OC)C[C@H]1C(=O)NO`, the IC50 came out at 10 nM.

For `C=CC(=O)N1CC[C@@H](Oc2cc3c(Nc4ccc(F)c(Cl)c4F)ncnc3cc2OC)C1`, the IC50 is 222 nM.

`COc1cc2ncnc(Nc3cccc(Cl)c3F)c2cc1O[C@H]1CCN(C(=O)/C=C/CN(C)C)C1` registered an IC50 of 8 nM.

On to `C=CC(=O)N1CCCC(Oc2cc3c(Nc4ccc(F)c(Cl)c4F)ncnc3cc2OC)C1` (configuration not stated), for which the IC50 stood at 6 nM.

The compound `C=CC(=O)Nc1cccc(Nc2ncnc3cc(OC)c(OC4CCN(C(=O)C=C)CC4)cc23)c1` displayed an IC50 of 400 nM.

With `COc1cc2ncnc(Nc3ccc(F)c(Cl)c3F)c2cc1OC1CN(C(=O)/C=C\CN(C)C)C1`, the IC50 came out at 15 nM.

The compound `C=CC(=O)N1CC[C@@H](Oc2cc3c(Nc4ccc(F)c(Cl)c4F)ncnc3cc2OC)C[C@@H]1C(=O)NO` yielded an IC50 of 1.7 nM.

As for `C=CC(=O)N1CC[C@H](Oc2ccc3ncnc(Nc4ccc(OCc5cccc(F)c5)c(Cl)c4)c3c2)C1`, the IC50 was determined as 15 nM.

`C=C(NC(C)=O)C(=O)N1CCC(Oc2cc3c(Nc4ccc(Cl)c(Cl)c4F)ncnc3cc2OC)CC1`: the IC50 amounted to 50 nM.

Take `C=CC(=O)N1CCC(Oc2cc3c(Nc4ccc(C(C)C)cc4)ncnc3cc2OC)CC1`: the IC50 came to 23 nM.

The compound `COc1cc2ncnc(Nc3cccc(Cl)c3F)c2cc1OC1CN(C(=O)/C=C/CN(C)C)C1` yielded an IC50 of 9 nM.

Consider `C=C(CN1CCCCC1)C(=O)N1CC(Oc2cc3c(Nc4cccc(Cl)c4F)ncnc3cc2OC)C1`, for which the IC50 is 2.4 nM.

`COc1cc2ncnc(Nc3ccc(F)c(Cl)c3F)c2cc1OC1CCN(C(=O)/C=C\CN(C)C)CC1` registered an IC50 of 6 nM.

In the case of `COc1cc2ncnc(Nc3ccc(F)c(Cl)c3F)c2cc1OC1CCN(C(=O)/C=C\C(=O)O)CC1`, the IC50 came to 41 nM.

On to `C=CC(=O)N1CCC(Oc2cc3c(Nc4ccc(O)c(Cl)c4)ncnc3cc2OC)CC1`, for which the IC50 was determined as 109 nM.

For `C=CC(=O)N1CCC(Oc2cc3c(Nc4cccc(CCl)c4)ncnc3cc2OC)CC1`, the IC50 was 26 nM.

Compound `C=CC(=O)N1CCC(Oc2cc3c(Nc4cccc([N+](=O)[O-])c4)ncnc3cc2OC)CC1` displayed an IC50 of 11 nM.

`CC#CC(=O)N1CCC(Oc2cc3c(Nc4ccc(F)c(Cl)c4F)ncnc3cc2OC)CC1` registered an IC50 of 190 nM.

The compound `C=C(CN1CCN(C)CC1)C(=O)N1CC(Oc2cc3c(Nc4ccc(F)c(Cl)c4F)ncnc3cc2OC)C1` displayed an IC50 of 1 nM.

Consider `CNC(=O)/C=C/C(=O)N1CCC(Oc2cc3c(Nc4ccc(F)c(Cl)c4F)ncnc3cc2OC)CC1`, for which the IC50 was 48 nM.

As for `COc1cc2ncnc(Nc3ccc(Cl)c(Cl)c3F)c2cc1OC1CCN(C(=O)/C=C/CN(C)C)CC1`, the IC50 turned out to be 165 nM.

As for `COC(=O)/C=C\C(=O)N1CC(Oc2cc3c(Nc4cccc(Cl)c4F)ncnc3cc2OC)C1`, the IC50 amounted to 1 nM.

As for `C=CC(=O)N1CC(Oc2cc3c(Nc4ccc(F)c(Cl)c4F)ncnc3cc2O)C1`, the IC50 turned out to be 381 nM.

As for `C=CC(=O)N1CC[C@H](Oc2cc3c(Nc4ccc(F)c(Cl)c4F)ncnc3cc2OC)C[C@H]1C(=O)NCCC`, the half-maximal inhibitory concentration (IC50) turned out to be 12 nM.
